Experimental data: US20110190365A1, “Insecticidal 4-phenyl-1H-pyrazoles” (Bayer Crop Science AG, priority 2008, published 2011)

Experiment: log P by HPLC on a reversed-phase column (C18), EEC Directive 79/831 Annex V.A8
Assay type: physicochemical
Settings: HCOOH
Description: The stated log P values were determined in accordance with EEC Directive 79/831 Annex V.A8 by HPLC (High Performance Liquid Chromatography) using a reversed-phase column (C18).

SMILES	log P (HCOOH)
CCC(C)C(NC(=O)c1ccc(-n2nc(C(F)(F)F)c(-c3cc(Cl)cc(Cl)c3)c2N)cc1)C(F)(F)F (stereo not drawn) [I-A-Q2-072]	I-A-Q2-072: log P (HCOOH): 5.22
CC(NC(=O)c1cnc(-n2nc(C(F)(F)F)c(-c3cc(Cl)cc(Cl)c3)c2N)nc1C(F)(F)F)c1ccccn1 (stereo not drawn) [I-A-Q2-021]	I-A-Q2-021: log P (HCOOH): 3.48
Cc1cc(-n2nc(C(F)(F)F)c(-c3cc(F)c(F)c(F)c3)c2N)ccc1C(=O)NCc1ccccn1 [I-A-Q2-358]	I-A-Q2-358: log P (HCOOH): 2.80
Cc1cc(-n2nc(C(F)(F)F)c(-c3cc(Cl)cc(Cl)c3)c2N)ccc1C(=O)NCc1cccnc1 [I-A-Q2-216]	I-A-Q2-216: log P (HCOOH): 2.57
Cc1cc(-n2nc(C(F)(F)F)c(-c3cc(Cl)cc(Cl)c3)c2N)ccc1C(=O)NC(CC(F)(F)F)C(F)(F)F (stereo not drawn) [I-A-Q2-217]	I-A-Q2-217: log P (HCOOH): 4.70
Cc1cc(-n2nc(C(F)(F)F)c(-c3cc(Cl)cc(Cl)c3)c2N)ccc1C(=O)NCCc1ccccn1 [I-A-Q2-226]	I-A-Q2-226: log P (HCOOH): 2.50
Cc1cc(-n2nc(C(F)(F)F)c(-c3cc(Cl)cc(Cl)c3)c2N)ccc1C(=O)NC(c1ccc(N(C)C)cc1)C(F)(F)F (stereo not drawn) [I-A-Q2-246]	I-A-Q2-246: log P (HCOOH): 5.02
Cc1cc(-n2nc(C(F)(F)c3cccc(Br)c3)c(-c3cc(Cl)cc(C(F)(F)F)c3)c2N)ccc1C(=O)NCC(F)(F)C(F)F [I-A-Q2-285]	I-A-Q2-285: log P (HCOOH): 4.95
Cc1cc(-n2nc(C(F)(F)F)c(-c3cc(Cl)cc(Cl)c3)c2N)ccc1C(=O)NCc1cc(C(F)(F)F)c(Cl)cn1 [I-A-Q2-207]	I-A-Q2-207: log P (HCOOH): 4.83
Cc1cc(-n2nc(C)c(-c3ccc(Cl)cc3)c2N)ccc1C(=O)NCC(F)(F)C(F)F [I-A-Q2-330]	I-A-Q2-330: log P (HCOOH): 3.12
COC(=O)CNC(=O)c1ccc(-n2nc(C(F)(F)F)c(-c3cc(Cl)cc(Cl)c3)c2N)cc1C [I-A-Q2-030]	I-A-Q2-030: log P (HCOOH): 3.68
Cc1cc(-n2nc(C(F)(F)F)c(-c3cccc(F)c3)c2N)ccc1C(=O)NCc1ccccn1 [I-A-Q2-354]	I-A-Q2-354: log P (HCOOH): 2.31
Nc1c(-c2cc(Cl)cc(Cl)c2)c(C(F)(F)F)nn1-c1ccc(C(=O)NCC(F)(F)F)cn1 [I-A-Q2-101]	I-A-Q2-101: log P (HCOOH): 4.71
Nc1c(-c2cc(Cl)cc(Cl)c2)c(C(F)(F)F)nn1-c1ccc(C(=O)NCCCC(F)=C(F)F)cc1 [I-A-Q2-073]	I-A-Q2-073: log P (HCOOH): 4.35
Cc1cc(-n2nc(C)c(-c3ccccc3Cl)c2N)ccc1C(=O)NCc1ccccn1 [I-A-Q2-373]	I-A-Q2-373: log P (HCOOH): 1.64
Cc1cc(-n2nc(C(F)(F)F)c(-c3cc(Cl)cc(Cl)c3)c2N)ccc1C(=O)NC1(c2ccccn2)CC1 [I-A-Q2-244]	I-A-Q2-244: log P (HCOOH): 3.68
Cc1cc(-n2nc(C(F)(F)F)c(-c3cc(Cl)cc(Cl)c3)c2N)ccc1C(=O)NCC(F)F [I-A-Q2-017]	I-A-Q2-017: log P (HCOOH): 4.04
Cc1cc(-n2nc(C)c(-c3ccc(F)cc3)c2N)ccc1C(=O)NCc1ccccn1 [I-A-Q2-367]	I-A-Q2-367: log P (HCOOH): 1.59
Cc1cc(-n2nc(C(F)(F)F)c(-c3cc(Cl)cc(Cl)c3)c2N)ccc1C(=O)NCc1cccc(Br)n1 [I-A-Q2-253]	I-A-Q2-253: log P (HCOOH): 4.40
Cc1cc(-n2nc(C)c(-c3ccc(F)cc3Cl)c2N)ccc1C(=O)NCC(F)(F)C(F)F [I-A-Q2-327]	I-A-Q2-327: log P (HCOOH): 2.73
Nc1c(-c2ccc(Cl)cc2)c(C(F)(F)F)nn1-c1ccc(C(=O)NCC(F)(F)F)cc1 [I-A-Q2-162]	I-A-Q2-162: log P (HCOOH): 3.51
Cc1cc(-n2nc(C(F)(F)Oc3cc(Cl)ccc3Cl)c(-c3cc(Cl)cc(C(F)(F)F)c3)c2N)ccc1C(=O)NCC(F)(F)C(F)F [I-A-Q2-296]	I-A-Q2-296: log P (HCOOH): 5.14
CCC(C)NC(=O)c1ccc(-n2nc(C(F)(F)F)c(-c3cc(Cl)cc(Cl)c3)c2N)cc1 (stereo not drawn) [I-A-Q2-145]	I-A-Q2-145: log P (HCOOH): 4.34
Nc1c(-c2cc(Cl)cc(Cl)c2)c(C(F)(F)F)nn1-c1ccc(C(=O)NCC(F)F)cc1 [I-A-Q2-140]	I-A-Q2-140: log P (HCOOH): 3.93
Cc1cc(-n2nc(C(F)(F)F)c(Cl)c2N)ccc1C(=O)O [XI-A-085]	XI-A-085: log P (HCOOH): 1.95
Cc1cc(-n2nc(C(F)(F)F)c(-c3cc(Cl)cc(Cl)c3)c2N)ccc1C(=O)NC(C)c1ccccn1 (stereo not drawn) [I-A-Q2-015]	I-A-Q2-015: log P (HCOOH): 3.70
Nc1c(-c2ccccc2Cl)c(C(F)(F)F)nn1-c1ccc(C(=O)NCc2ncccn2)cc1 [I-A-Q2-080]	I-A-Q2-080: log P (HCOOH): 2.38
Cc1cccc(CNC(=O)c2ccc(-n3nc(C(F)(F)F)c(-c4cc(Cl)cc(Cl)c4)c3N)cc2C)n1 [I-A-Q2-042]	I-A-Q2-042: log P (HCOOH): 2.93
CNC(=O)c1ccc(-n2nc(C(F)(F)F)c(-c3cccc(Cl)c3)c2N)cc1 [I-A-Q2-094]	I-A-Q2-094: log P (HCOOH): 2.76
Cc1cc(-n2nc(C)c(-c3c(Cl)cccc3Cl)c2N)ccc1C(=O)NCc1ccccn1 [I-A-Q2-376]	I-A-Q2-376: log P (HCOOH): 1.79

Same assay, conditions: HCOOH; Table 4, compounds of formula I-A-Q4

SMILES	log P (HCOOH)
COC(=O)c1ccc(-n2nc(C(F)(F)F)c(-c3cc(Cl)cc(Cl)c3)c2N)cc1Cl [I-A-Q4-104]	I-A-Q4-104: log P (HCOOH): 5.07
COC(=O)c1ccc(-n2nc(C(F)(F)F)c(-c3cc(Cl)cc(Cl)c3)c2N)cc1C(F)(F)F [I-A-Q4-112]	I-A-Q4-112: log P (HCOOH): 5.21
Cc1nn(-c2ccc(Cl)cn2)c(N)c1-c1ccc(F)cc1F [I-A-Q4-035]	I-A-Q4-035: log P (HCOOH): 3.78
Nc1c(-c2cc(Cl)cc(Cl)c2)c(C(F)(F)F)nn1-c1ccc(C(=O)O)cc1 [I-A-Q4-087]	I-A-Q4-087: log P (HCOOH): 3.79
Cc1nn(-c2ccc(Cl)cn2)c(N)c1-c1ccc(F)cc1Cl [I-A-Q4-037]	I-A-Q4-037: log P (HCOOH): 4.05
Cc1cc(C)cc(-c2c(C(F)(F)F)nn(-c3ccc(Cl)cn3)c2N)c1 [I-A-Q4-022]	I-A-Q4-022: log P (HCOOH): 5.22
COc1ccc(-c2c(C)nn(-c3ccc(Cl)cn3)c2N)cc1 [I-A-Q4-061]	I-A-Q4-061: log P (HCOOH): 3.58

Same assay, conditions: HCOOH; compounds of the formula (IX), Table 11

SMILES	log P (HCOOH)
CC(=O)Nc1[nH]nc(C(F)(F)F)c1-c1ccc(Cl)cc1Cl [IX-204]	IX-204: log P (HCOOH): 2.79

Same assay, conditions: HPLC, reversed-phase C18, mobile phase with formic acid

SMILES	log P (HCOOH)
N#Cc1cc(-n2nc(C(F)(F)F)c(-c3ccc(F)c(F)c3)c2N)ccc1-n1cncn1 [I-A-Q1-044]	I-A-Q1-044: log P (HCOOH): 3.10
N#Cc1cc(-n2nc(C(F)(F)F)c(-c3cc(Cl)cc(Cl)c3)c2N)ccc1-n1cc(Cl)cn1 [I-A-Q1-084]	I-A-Q1-084: log P (HCOOH): 4.70
N#Cc1cc(-n2nc(C(F)(F)F)c(-c3cc(C(F)(F)F)cc(C(F)(F)F)c3)c2N)ccc1-n1cncn1 [I-A-Q1-027]	I-A-Q1-027: log P (HCOOH): 4.07
COc1ccc(-c2c(C)nn(-c3ccc(-n4cncn4)c(C#N)c3)c2N)cc1 [I-A-Q1-058]	I-A-Q1-058: log P (HCOOH): 2.11
N#Cc1cc(-n2nc(-c3ccccc3)c(-c3ccc(Cl)cc3)c2N)ccc1-n1cncn1 [I-A-Q1-063]	I-A-Q1-063: log P (HCOOH): 3.53
COC(C)c1nn(-c2ccc(-n3cncn3)c(C#N)c2)c(N)c1-c1cc(Cl)cc(C(F)(F)F)c1 (stereo not drawn) [I-A-Q1-023]	I-A-Q1-023: log P (HCOOH): 2.76

Same assay, conditions: HPLC, reversed-phase C18, mobile phase with formic acid; read-out: log P (HCOOH)

SMILES	chromatographic logP
COC(=O)c1ccc(NN)cc1C [VII-A-008, Methyl 4-hydrazino-2-methylbenzoate]	0.4
